Source: patent publication US12077503B2, “Substituted cyclic amides and their use as herbicides” (FMC CORPORATION, priority 2015, dated 2024)

Key:
Type in all cases: in vivo
[1] = tested on: ivy-leaved morning glory (Ipomoea hederacea); assay: Test G Post-Emergence Protocol; settings: Ipomoea, post-emergence, 312 h, read-out: Morningglory, Ivy-leaved damage rating
In short: (§1)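 Sow in soil; grow 8 d (24/16 °C, 14 h light, 65% humidity); spray 15.625/62.5/250 g/ha in acetone:water 50:50 + 0.5% Tween 20; grow on, water twice daily; score damage 0–100 at 13 d.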

[2] = tested on: velvetleaf (Abutilon theophrasti); assay: Test G Post-Emergence Protocol; settings: Abutilon theophrasti, post-emergence, 312 h, read-out: Velvetleaf damage rating
In short: as §1

[3] = tested on: giant foxtail (Setaria faberi); assay: Test G Post-Emergence Protocol; settings: Setaria faberi, post-emergence, 312 h, read-out: Foxtail, Giant damage rating
In short: as §1

corn (Zea mays) [4] = assay: Test G Post-Emergence Protocol; settings: Zea mays, post-emergence, 312 h, read-out: Corn damage rating
In short: as §1

[5] = tested on: barnyardgrass (Echinochloa crus-galli); assay: Test G Post-Emergence Protocol; settings: Echinochloa crus-galli, post-emergence, 312 h, read-out: Barnyardgrass damage rating
In short: as §1

[6] = tested on: redroot pigweed (Amaranthus retroflexus); assay: Test G Post-Emergence Protocol; settings: Amaranthus retroflexus, post-emergence, 312 h, read-out: Pigweed, Redroot damage rating
In short: as §1

[7] = tested on: ivy-leaved morning glory (Ipomoea hederacea); assay: Test G Pre-Emergence Protocol; settings: Ipomoea, pre-emergence, 312 h, evaluated after 13 days
In short: (§2)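 Under a 24/16° C day/night regime with 14 h light and 65% humidity, sown pots were sprayed after one day with compound (15.625, 62.5 or 250 g/ha; 50:50 acetone/water, 0.5% Tween 20). Damage was assessed visually 13 days later, 0 to 100.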

[8] = tested on: velvetleaf (Abutilon theophrasti); assay: Test G Pre-Emergence Protocol; settings: Abutilon theophrasti, pre-emergence, 312 h, evaluated after 13 days
In short: as §2

[9] = tested on: giant foxtail (Setaria faberi); assay: Test G Pre-Emergence Protocol; settings: Setaria faberi, pre-emergence, 312 h, evaluated after 13 days
In short: as §2

corn (Zea mays) [10] = assay: Test G Pre-Emergence Protocol; settings: Zea mays, pre-emergence, 312 h, evaluated after 13 days
In short: as §2

[11] = tested on: barnyardgrass (Echinochloa crus-galli); assay: Test G Pre-Emergence Protocol; settings: Echinochloa crus-galli, pre-emergence, 312 h, evaluated after 13 days
In short: as §2

[12] = tested on: redroot pigweed (Amaranthus retroflexus); assay: Test G Pre-Emergence Protocol; settings: Amaranthus retroflexus, pre-emergence, 312 h, evaluated after 13 days
In short: as §2

[13] = 15.625 g ai/ha, evaluated after 13 days (100=total damage to plant; 0=no damage to plant)
[14] = 62.5 g ai/ha, evaluated after 13 days, 100=total damage to plant, 0=no damage to plant
[15] = 250 g ai/ha, evaluated after 13 days, 100=total damage to plant, 0=no damage to plant

CN1C[C@H](c2ccc(C(F)(F)F)cc2)[C@@H](C(=O)Nc2cnccc2[N+](=O)[O-])C1=O (racemic) [Compound 1729]
0%: pest or weed control at 15.625 g/ha [1, 13] | pest or weed control at 62.5 g/ha [1, 14] | pest or weed control at 250 g/ha [1, 15] | pest or weed control at 15.625 g/ha [2, 13] | pest or weed control at 62.5 g/ha [2, 14] | pest or weed control at 250 g/ha [2, 15] | pest or weed control at 15.625 g/ha [3, 13] | pest or weed control at 62.5 g/ha [3, 14] | pest or weed control at 250 g/ha [3, 15] | plant injury at 15.625 g/ha (corn (Zea mays) [4]; [13]) | plant injury at 62.5 g/ha (corn (Zea mays) [4]; [14]) | plant injury at 250 g/ha (corn (Zea mays) [4]; [15]) | pest or weed control at 15.625 g/ha [5, 13] | pest or weed control at 62.5 g/ha [5, 14] | pest or weed control at 250 g/ha [5, 15] | pest or weed control at 15.625 g/ha [6, 13] | pest or weed control at 62.5 g/ha [6, 14] | pest or weed control at 250 g/ha [6, 15] | pest or weed control at 15.625 g/ha ([7]; 15.625 g ai/ha, read-out: Morningglory, Ivy-leaved damage rating (100=total damage to plant; 0=no damage to plant)) | pest or weed control at 62.5 g/ha ([7]; 62.5 g ai/ha, 100=total damage to plant, 0=no damage to plant, read-out: Morningglory, Ivy-leaved damage rating) | pest or weed control at 250 g/ha ([7]; 250 g ai/ha, read-out: Morningglory, Ivy-leaved damage rating (100=total damage to plant; 0=no damage to plant)) | pest or weed control at 15.625 g/ha ([8]; 15.625 g ai/ha, read-out: Velvetleaf damage rating (100=total damage to plant; 0=no damage to plant)) | pest or weed control at 62.5 g/ha ([8]; 62.5 g ai/ha, 100=total damage to plant, 0=no damage to plant, read-out: Velvetleaf damage rating) | pest or weed control at 250 g/ha ([8]; 250 g ai/ha, read-out: Velvetleaf damage rating (100=total damage to plant; 0=no damage to plant)) | pest or weed control at 15.625 g/ha ([9]; 15.625 g ai/ha, read-out: Foxtail, Giant damage rating (100=total damage to plant; 0=no damage to plant)) | pest or weed control at 62.5 g/ha ([9]; 62.5 g ai/ha, 100=total damage to plant, 0=no damage to plant, read-out: Foxtail, Giant damage rating) | pest or weed control at 250 g/ha ([9]; 250 g ai/ha, read-out: Foxtail, Giant damage rating (100=total damage to plant; 0=no damage to plant)) | plant injury at 15.625 g/ha (corn (Zea mays) [10]; 15.625 g ai/ha, read-out: Corn damage rating (100=total damage to plant; 0=no damage to plant)) | plant injury at 62.5 g/ha (corn (Zea mays) [10]; 62.5 g ai/ha, 100=total damage to plant, 0=no damage to plant, read-out: Corn damage rating) | plant injury at 250 g/ha (corn (Zea mays) [10]; 250 g ai/ha, read-out: Corn damage rating (100=total damage to plant; 0=no damage to plant)) | pest or weed control at 15.625 g/ha ([11]; 15.625 g ai/ha, read-out: Barnyardgrass damage rating (100=total damage to plant; 0=no damage to plant)) | pest or weed control at 62.5 g/ha ([11]; 62.5 g ai/ha, 100=total damage to plant, 0=no damage to plant, read-out: Barnyardgrass damage rating) | pest or weed control at 250 g/ha ([11]; 250 g ai/ha, read-out: Barnyardgrass damage rating (100=total damage to plant; 0=no damage to plant)) | pest or weed control at 15.625 g/ha ([12]; 15.625 g ai/ha, read-out: Pigweed, Redroot damage rating (100=total damage to plant; 0=no damage to plant)) | pest or weed control at 62.5 g/ha ([12]; 62.5 g ai/ha, 100=total damage to plant, 0=no damage to plant, read-out: Pigweed, Redroot damage rating) | pest or weed control at 250 g/ha ([12]; 250 g ai/ha, read-out: Pigweed, Redroot damage rating (100=total damage to plant; 0=no damage to plant))
